The test system of data set [1] is hGCGR mice. Nature of the data set: Combination treatment of GRAs with ezetimibe in hGCGR mice (Example 9). It counts as in vivo. The note with it: for plasma total cholesterol: GRA alone 30 mpk QD for 9 days. From the text:
FIGS. 15A-B illustrate total plasma cholesterol (FIG. 15A) and cholesterol absorption (FIG. 15B) upon sub-chronic treatment of hGCGR mice with vehicle. GRA Compound A (30 mpk), ezetimibe (10 mpk), or Compound A (30 mpk)+ezetimibe (10 mpk) QD for 9 days.
FIGS. 16A-B illustrate total plasma cholesterol (FIG. 16A) and cholesterol absorption (FIG. 16B) upon sub-chronic treatment of hGCGR mice with vehicle, GRA Compound D (30 mpk), Compound E (30 mpk), Compound D (30 mpk)+ezetimibe (10 mpk), or Compound E (30 mpk)+ezetimibe (10 mpk) QD for 9 days.
A similar protocol was deployed in this part of work except ezetimibe was added to the combination treatment groups. Briefly, male hGCGR mice at ˜12 wks of age were treated with vehicle, ezetimibe@10 mpk, Compound A@30 mpk, Compound D@30 mpk, Compound E@30 mpk, Compound A@30 mpk+ezetimibe@10 mpk, Compound D@30 mpk+ezetimibe@10 mpk, Compound E@30 mpk+ezetimibe@10 mpk. Plasma total cholesterol, phytosterol, cholesterol absorption, and cholesterol synthesis were quantified using the same assays as described before.

The test system of data set [2] is hGCGR mice. Put plainly: Sub-chronic treatment of hGCGR mice with GRA (Example 1): plasma total cholesterol, phytosterols, lathosterol, cholesterol synthesis. As to conditions: 30 mpk QD for 5 days, vs vehicle. It counts as in vivo. On the procedure:
Male hGCGR mice (Transgenic Research, 8:295-302, 1999) at ˜12 wks of age maintained on chow diet were treated with vehicle and GRA Compounds A, B, and C at 30 mpk QD for 5 days (n=8). On Day 1, mice were administered the compounds followed by glucagon-induced glucose tolerance test. On Day 5, mice were fasted at 7:30 am. After dosing at ˜9:00 am, the blood glucose was measured at 2-h post dose with a glucometer; see FIG. 1. At 6-h post dose, the tail blood was collected for PK measurement. Mice were euthanized with CO2, and blood was collected by cardiac puncture. The liver was snap frozen in liquid nitrogen with a freezing clamp and saved in −80° C. Plasma was isolated by centrifuging the blood at 8000 rpm for 5 min. The plasma level of total cholesterol was measured by biochemical assay (Wako Chemicals Inc.). The plasma level of lathosterol and phytosterol was measured by LC/MS. To determine cholesterol synthesis. D2O was administered i.p. at 20 ml/kg on 24 h prior to takedown of the mice. The level of D2 in plasma water and plasma cholesterol was assayed by GC/MS for cholesterol synthesis. Asterisks denote statistical significance between treatment and vehicle groups.

The subject of data set [3] is hGCGR mice. Put plainly: hGCGR mice, 5 day treatment with GRA Compound A and positive control LXR agonist (Example 2): plasma total cholesterol and LDL-c. In kind it is in vivo. The note with it: comparing with vehicle. From the text:
FIG. 6 illustrates plasma levels of total cholesterol and LDL-c in hGCGR mice following a 5 day treatment with GRA Compound A and positive control LXR agonist.
It is important to note that lipoprotein profiles of mouse and human are fundamentally different. In mice, the major lipoproteins are in HDL while in humans the main lipoproteins are in LDL-c. In preclinical studies, hGCGR mice were used as the model for in vivo study. Plasma level of total cholesterol was used as a more reliable parameter to indicate the effect of GRAS on cholesterol metabolism.

The subject of a further data set is type 2 diabetic patients. It counts as in vivo, human. On the procedure:
In phase 2b trial studies of Compound D, the average plasma levels of LDL-c in the placebo, Compound D@20, 40, 60, 80 mg, and metformin@2 g groups were 112.3, 117.7, 117.3, 110.0, 111.9, and 113.8 mg/dl at baseline, respectively. Plasma levels of LDL-c of the majority of the patients were within the normal range (≤130 mg/dl) according to the guideline of the American Heart Association and Mayo Clinic. After 12-week treatment, the average plasma levels of LDL-c were 105.4, 117.7, 123.2, 119.7, 126.6, and 111.1 mg/dl, respectively.
The following table illustrates the plasma levels of LDL-c in the patients in the phase 2b trial of Compound D. Type 2 diabetic patients with fasting glucose level of 140 to 240 mg/dl were recruited to the phase 2b trial of Compound D. After a 6-wk washout of any previous anti-hyperglycemic agents, patients were treated with placebo, Compound D QD@20, 40, 60, and 80 mg, and metformin BID@1 g for 12 wks. Values in bold are the percentage of patients on Day-1 and wk 12 less than or equal to the designated cutoff values at 130, 110, 100, and 70 mg/dl.
The baseline plasma level of LDL-c (Day -1) was plotted with the % change of LDL-c at week 12 from baseline.
In the 46 patients on Compound D@60 mg in the phase 2b trial, 14 patients were on statins during the 12-wk trial. […] LDL-c (despite the presence of the statin); see FIG. 17.

In data set [4] the test system is hGCGR mice. Put plainly: Sub-chronic study of Compound D in hGCGR mice: glucagon-induced glucose tolerance test and plasma phytosterols (Example 5). The note with it: 3 and 10 mpk, Day 1. In kind it is in vivo. The protocol: Male wild type and hGCGR mice on chow diet were treated with vehicle or GRA Compound D@3 and 10 mpk. On Day 1, mice were administered vehicle or Compound D followed by a glucagon-induced glucose tolerance test. On Day 5, mice were fasted at 7:30 am. After dosing at ˜9:00 am, blood glucose was measured at 2-h post dose with a glucometer. At 6-h post dose, tail blood was collected for a PK measurement. Mice were euthanized with CO2, and blood was collected by cardiac puncture. The liver was snap frozen in liquid nitrogen with a freezing clamp and saved in −80° C.
Plasma was isolated by centrifuging the blood at 8000 rpm for 5 min. Plasma level of total cholesterol was measured by an enzymatic colorimetric method (Wako Chemicals Inc.). Plasma levels of lathosterol and Phytosterol was measured by LC/MS.

For data set [5], the system named is hGCGR mice. Nature of the data set: Dual tracer study for cholesterol absorption in hGCGR mice (Example 4). In kind it is in vivo. The note with it: 30 mpk QD for 9 days. The protocol: Male hGCGR mice at ˜12 wks of age maintained on chow or high cholesterol diet (n=8 group) were treated with vehicle and GRA Compound A@30 mpk QD for 9 days. Twenty four-hour feces before treatment and 3 days after treated were collected for fecal cholesterol characterization. On Day 4, mice were dosed with vehicle (0.5% MC, BID) or Compound A followed by administration with D6-cholesterol@15 mpk through p.o. and 13C-cholesterol@15 mpk through i.v. Blood was collected at 4, 24, 48, 72, and 96 h post injection by tail bleeding. For cholesterol synthesis, D2O was administered i.p. at 20 ml/kg on Day 7. On day 8, tail blood was collected for PK and mice were taken down for blood and liver collection. Plasma was isolated from blood by centrifuge at 8000 rpm for 5 min and submitted for GC/MS assay for cholesterol synthesis and absorption. Feces were sent to Taconic for fecal cholesterol assay. Asterisks denote statistical significance between treatment and vehicle groups. * p<0.05, **p<0.01, and ***p<0.001 by ANOVA.

[6] abbreviates: ezetimibe 10 mpk combined with Compound A, D or E 30 mpk, QD for 9 days.

The values that follow come from US11077092B2, “Methods of treating diabetes by administering a glucagon receptor antagonist in combination with a cholesterol absorption inhibitor” (Merck Sharp & Dohme Corp., priority 2012, dated 2021).

As for `O=C1[C@H](CC[C@H](O)c2ccc(F)cc2)[C@@H](c2ccc(O)cc2)N1c1ccc(F)cc1` [ezetimibe, reference compound], in the data set with hGCGR mice [1] (setting [6]), the “induction of cholesterol absorption caused by GRAs” value was “prevented the induction” and the “induction of total cholesterol caused by GRAs” value is “prevented the induction”.

In the case of `Cc1cc(OC(CCC(F)(F)F)c2ccc(C(=O)NCCC(=O)O)cc2)cc(C)c1-c1ccc(C(C)(C)C)cc1` (stereo not shown) [Compound B, 3-{4-[1-(4′-tert-butyl-2,6-dimethyl-biphenyl-4-yloxy)-4,4,4-trifluoro-butyl]-benzoylamino}-propionic acid], in the data set on hGCGR mice [2], the plasma total cholesterol result is “induced”.

Turning to `O=S(=O)(c1ccccc1)N(CC(F)(F)F)c1ccc(C(O)(C(F)(F)F)C(F)(F)F)cc1` [Compound T, reference compound], in the data set on hGCGR mice [3], the “plasma level of LDL-c” value is given as “significantly increased” and the “plasma level of total cholesterol” value is recorded as “significantly increased”.

In the case of `CN(C)C(=N)N=C(N)N` [Metformin, metformin, reference compound], in the data set with type 2 diabetic patients (human, in vivo), the “average plasma level of LDL-c” value worked out at 113.8 mg/dL, the “increase of LDL-c after 12-week treatment” value is listed as 2.2%, the “percentage of patients with plasma LDL-c less than or equal to 110 mg/dl” value is listed as 54.2 percentage and the “percentage of patients with plasma LDL-c less than or equal to 130 mg/dl” value stood at 70.8 percentage.

Take `Cc1cc(OC(CCC(C)(C)C)c2ccc(C(=O)NCCC(=O)O)cc2)cc(C)c1-c1ccc(C(F)(F)F)cc1` (stereo not shown) [Compound C, 3-{4-[1-(2,6-Dimethyl-4′-trifluoromethyl-biphenyl-4-yloxy)-4,4-dimethyl-pentyl]-benzoylamino}-propionic acid]: the plasma total cholesterol result with hGCGR mice [2] is “induced”.

In the case of `CCC[C@H](c1ccc(C(=O)NCCC(=O)O)cc1)[C@H](c1ccc(Cl)cc1)c1c[nH]c2c(F)cc(C)cc12` [Compound E, N-(4-{(1S)-1-[(R)-(4-chlorophenyl)(7-fluoro-5-methyl-1H-indol-3-yl)methyl]butyl}benzoyl)-β-alanine], the plasma total cholesterol result in the data set on hGCGR mice [1] is given as “significantly increased or tended to increase”.

As for `COc1ccc2cc(-c3cc(-c4cc(Cl)cc(Cl)c4)nn3[C@@H](C)c3ccc(C(=O)NCCC(=O)O)cc3)ccc2c1` [Compound D, N-(4-{(1S)-1-[3-(3,5-dichlorophenyl)-5-(6-methoxy-2-naphthyl)-1H-pyrazol-1-yl]ethyl}benzoyl)-β-alanine], the glucagon-induced glucose excursion entry in the data set on hGCGR mice [4] is recorded as “suppressed”. Also, the blood glucose levels entry in the data set on type 2 diabetic patients (60 mg, 12-wk trial, in most patients) is “substantial reduction”. Further, the plasma total cholesterol result with hGCGR mice [1] is given as “significantly increased or tended to increase”.

Regarding `COc1ccc2cc(-c3cc(-c4cc(C(F)(F)F)ccc4F)nn3[C@@H](C)c3ccc(C(=O)NCCC(=O)O)cc3)ccc2c1` [Compound A], the plasma total cholesterol entry is “induced” in the data set on hGCGR mice [2], “significantly increased” in the data set on hGCGR mice [5] and “significantly increased or tended to increase” in the data set with hGCGR mice [1]. Besides, the “plasma level of LDL-c” value with hGCGR mice [3] is “significantly increased”. The “plasma level of total cholesterol” value in the data set with hGCGR mice [3] was “significantly increased”.
